Reference: patent publication US4006251A, “Bactericidal and fungicidal composition containing thiocarbanyl sulfenamides” (The B. F. Goodrich Company, priority 1973, dated 1977)
≈ marks a conversion by molar mass, not a printed value. Where two headings read alike, the source gives them in different places.

Assays:
[1] = system: various infectious organisms; assay: Activity against organisms, overall (Agar Screening Test and/or Penicillin Button Assay Test); format: cell-based; settings: organisms (a) to (d)
Source text: A. Agar Screening Test for Activity.
B. Penicillin Button Assay Test.

[2] = Storage stability test, melting point, appearance and odor before and after aging; format: physicochemical; settings: for Melting point, after aging: air oven, closed bottles
Protocol: (§1) D. Storage Stability Tests.
In addition to the titration test, other tests were run. The melting point of the compound was measured both before and after aging. Little or no change in melting point indicates good storage stability. Further, observations were made upon the appearance and odor of the compounds before and after aging.
(§2) This is important if the compounds are going to be used in disinfectant solutions, and stored and marked without a significant loss in activity against organisms. […] The compounds were aged in an air oven, while in closed bottles. The test methods used were previously described.

rats = assay: Acute inhalation toxicity test; format: in vivo; settings: classification according to federal regulations
Protocol: (§3) The thiocarbamylsulfenamide compounds were also evaluated as to their oral, dermal, and inhalation toxicity. The techniques employed are specified in Section 362.116 of the Regulations for the Enforcement of the Federal Insecticide, Fungicide, and Rodenticide Act, Interpretation 18 (Revised, Federal Register, April 4, 1969), or in the Federal Hazardous Substances Act. (Revised, Federal Register, September 17, 1964). Acute oral LD50, acute dermal LD50, and acute inhalation LC50 were determined; LD50 being the lethal dose for 50% of the test animals and LC50 being the lethal concentration for 50% of the test animals. Acute oral and acute inhalation tests were run using rats, while acute dermal testing was run using rabbits.
(§4) Two of the compounds evaluated for their activity against organisms (compounds A and G respectively in Example V) were tested for their toxicity following the procedure previously given in the specification.

[3] = Acute inhalation toxicity test; format: in vivo, rats; settings: rat, in vivo, inhaled or intranasal; rats, inhalation
Protocol: as §3, §4

[4] = Storage stability test, purity by titration before and after aging; format: physicochemical; settings: for Percent Purity, after aging: air oven, closed bottles
Protocol: as §1
Thiocarbamylsulfenamide compounds were tested for their stability upon storage at room temperature and after mild thermal aging. The principle test employed consisted of measuring the purity of a sample before and after aging. This was done by titrating a sample solution of the compound using potassium iodide, KI, and sodium thiosulfate, Na2 S2 O3. A 0.5 to 1.0 gram sample of the compound is weighed out and dissolved in 10 milliliters of chloroform. […] The calculations are: [formula] The value obtained is the percent by weight of the sample that is the desired thiocarbamylsulfenamide. The titration is run on the sample before and after aging. The change in purity of the compound indicates its decomposition upon storage.
as §2

rabbits = assay: Acute dermal toxicity test; format: in vivo; settings: classification according to federal regulations
Protocol: as §3, §4

[5] = Acute dermal toxicity test; format: in vivo, rabbits; settings: rabbit, in vivo, topical or ocular; rabbits, dermal
Protocol: as §3, §4

Acute oral toxicity test = settings: rat, in vivo, rats
Protocol: as §3, §4

[6] = system: various infectious organisms; settings: U.S. Pat. No. 2,692,862; cited from earlier work
[7] = before aging, sample for 50 °C, 10 days
[8] = before aging, sample for 80 °C, 16 hrs.

## CCCCN(CCCC)C(=S)SN(C1CCCCC1)C1CCCCC1 [C, N,N-dibutylthiocarbamyl-N',N'-dicyclohexylsulfenamide]
[1]
  activity against organisms (in words): no activity

## CN(C)C(=S)SN(C1CCCCC1)C1CCCCC1 [Compound A, N,N-dimethylthiocarbamyl-N',N'-dicyclohexylsulfenamide]
[1]
  activity against organisms (in words): good activity against organisms
[2]; 50 °C, 10 days
  Amine odor, after aging: slight
  Melting point, after aging: 85-87 °C
[2]; 80 °C, 16 hrs.
  Amine odor, after aging: slight
  Color, after aging: white
  Melting point, after aging: 83-85 °C
[2]; sample for 50 °C, 10 days
  Amine odor, before aging: slight
  Color, before aging: white
  Melting point, before aging: 85-87 °C
[2]; sample for 80 °C, 16 hrs.
  Amine odor, before aging: slight
  Color, before aging: white
  Melting point, before aging: 84-85 °C
rats
  toxicity by inhalation (in words): non-toxic
[3]
  LC50: 78 µg/mL (≈ 260 µM)
[4]; after aging, 50 °C, 10 days
  Percent Purity, after aging: 99%
[4]; after aging, 80 °C, 16 hrs.
  Percent Purity, after aging: 97%
[4]; [7]
  Percent Purity, before aging: 99%
[4]; [8]
  Percent Purity, before aging: 100%
rabbits
  toxicity by dermal absorption (in words): non-toxic
[5]
  LD50: > 10000 mg/kg
Acute oral toxicity test
  LD50: 1100 mg/kg

## CCN(CC)C(=S)SN(C1CCCCC1)C1CCCCC1 [Compound B, N,N-diethylthiocarbamyl-N',N'-dicyclohexylsulfenamide]
[1]
  activity against organisms (in words): good activity

## S=C(SN1CCOCC1)N1CCOCC1 [Compound G, N-oxydiethylenethiocarbamyl-N'-oxydiethylenesulfenamide]
[1]
  activity against organisms (in words): good activity against organisms
[2]; 80 °C, 16 hrs.
  Amine odor, after aging: slight
  Melting point, after aging: 135-139 °C
[2]; sample for 80 °C, 16 hrs.
  Amine odor, before aging: slight
  Color, before aging: white
  Melting point, before aging: 136-139 °C
rats
  toxicity by inhalation (in words): non-toxic
[3]
  LC50: 164 µg/mL (≈ 660 µM)
[4]
  Percent Purity, before aging: 98
[4]; 16 h
  Percent Purity, after aging: 98
rabbits
  toxicity by dermal absorption (in words): non-toxic
[5]
  LD50: > 10000 mg/kg
Acute oral toxicity test
  LD50: 5100 mg/kg

## CN(C)C(=S)SNc1ccccc1 [Compound H, N,N-dimethylthiocarbamyl-N'-phenylsulfenamide]
[1]
  activity against organisms (in words): good activity

## CCCCCCCCCCCCCCCCCCCCN(CCCCCCCCCCCCCCCCCCCC)C(=S)SN(C1CCCCC1)C1CCCCC1 [D, N,N-dieicosylthiocarbamyl-N',N'-dicyclohexylsulfenamide]
[1]
  activity against organisms (in words): no activity

## S=C(SN(C1CCCCC1)C1CCCCC1)N1CCOCC1 [E, N-oxydiethylenethiocarbamyl-N',N'-dicyclohexylsulfenamide]
[1]
  activity against organisms (in words): almost no activity

## CCN(CC)C(=S)SNc1ccccc1 [I, N,N-diethylthiocarbamyl-N'-phenylsulfenamide]
[1]
  activity against organisms (in words): very little activity

## CN(C)SC(=S)N(C)C [J, N,N-dimethylthiocarbamyl-N',N'-dimethylsulfenamide, reference compound]
[2]; 50 °C, 10 days
  Amine odor, after aging: strong
  Color, after aging: yellow
  Melting point, after aging: 34-39 °C
[2]; sample for 50 °C, 10 days
  Amine odor, before aging: slight
  Melting point, before aging: 49-51 °C
[4]; after aging, 50 °C, 10 days
  Percent Purity, after aging: 77%
[4]; [7]
  Percent Purity, before aging: 96%
[6]
  known activity against organisms (in words): known to have activity against organisms

## CC(C)N(SC(=S)N(C)C)C(C)C [K, N,N-dimethylthiocarbamyl-N',N'-diisopropylsulfenamide, reference compound]
[2]; 80 °C, 16 hrs.
  Amine odor, after aging: strong
  Melting point, after aging: 53-54 °C
[2]; sample for 80 °C, 16 hrs.
  Amine odor, before aging: mild
  Color, before aging: white
  Melting point, before aging: 56-57 °C
[4]; after aging, 80 °C, 16 hrs.
  Percent Purity, after aging: 89%
[4]; [8]
  Percent Purity, before aging: 93%
[6]
  known activity against organisms (in words): known to have activity against organisms
